Results on 2 compounds are retold here after patent publication US12377176B2, “Cancer diagnostic imaging agents” (Technische Universität München, priority 2019, dated 2025).

The test system of data set [1] is LNCaP tumor-bearing CB-17 SCID mice. The data set can be described thus: Biodistribution in LNCaP tumor-bearing SCID mice, 1 h p.i., with or without PMPA.
Description: To establish tumor xenografts, LNCaP cells (10^7 cells/200 μL) were suspended in a 1:1 mixture (v/v) of Dulbecco modified Eagle medium/Nutrition Mixture F-12 with Glutamax-I (1:1) and Matrigel (BD Biosciences, Germany), and inoculated subcutaneously onto the right shoulder of 6-8 weeks old CB17-SCID mice (Charles River, Sulzfeld, Germany). Mice were used for when tumors had grown to a diameter of 5-8 mm (3-4 weeks after inoculation).
Approximately 1-2 MBq (<0.2 nmol) of the ^18F-labeled PSMA inhibitor was injected into the tail vein of LNCaP tumor-bearing male CB-17 SCID mice and sacrificed after 1 h post injection (n=4-5). Selected organs were removed, weighted and measured in a γ-counter
Data set [2] in a line: Metabolic stability and 18F/19F isotopic exchange in mouse urine (radio-HPLC, radio-TLC). It is filed as in vitro ADME, mice. How it is done:
Analytical reversed-phase high pressure chromatography (RP-HPLC) were performed using Shimadzu gradient systems (Shimadzu Deutschland GmbH, Neufahrn, Germany), equipped with a SPD-20A UV/Vis detector (220 nm, 254 nm). […] Eluents for all HPLC operations were water (solvent A) and acetonitrile (solvent B), both containing 0.1% trifluoroacetic acid. […] The gradient for all HPLC operations was: 5% B isocratic 0-3 min, 25-35% B 3-43 min, 95-95% B 43-48 min.
For radio-thin-layer chromatography, aluminum sheets coated with silica gel 60 RP-18 F254s were used with a mobile phase consisting of a 3:2 mixture (v/v) of MeCN in H2O supplemented with 10% of 2 M aqueous NaOAc and 1% of TFA. Analysis was performed using either a Scan-RAM radio-TLC detector (LabLogic Systems Ltd., Sheffield, United Kingdom) or a CR 35 BIO phosphorimager (Duerr Medical GmbH, Bietigheim-Bissingen, Germany).
For in vivo μmetabolism studies, 8-12 MBq (<0.6 nmol) of the respective ^18F-labeled ligand (rhPSMA-7.1-7.4) was injected into the tail vein of female healthy CB17-SCID mice (n=4). Mice were left under anesthesia for 30 min and the urine was collected using a bladder catheter. Urine samples were pooled and centrifuged for 5 min at 9000 rpm to remove suspended solids. The supernatant was directly used for radio-HPLC analysis with the above mentioned conditions. […]

In data set [1], “[^19F][^natGa]D/L-Dap-R/S-DOTAGA-rhPSMA7 [rhPSMA7-rac]” displayed a Biodistribution adrenals of 3.0 ± 0.45 % ID/g, a Biodistribution blood of 1.1 ± 0.03 % ID/g, a Biodistribution bone of 0.91 ± 0.11 % ID/g and a Biodistribution heart of 0.69 ± 0.07 % ID/g. Besides, in data set [1], the Biodistribution intestine is listed as 0.60 ± 0.27 % ID/g, the Biodistribution kidneys is 71.3 ± 13.3 % ID/g, the Biodistribution liver is listed as 0.67 ± 0.07 % ID/g and the Biodistribution lung is 1.4 ± 0.17 % ID/g. For the same compound, in data set [1], the Biodistribution muscle is reported as 0.36 ± 0.06 % ID/g, the Biodistribution pancreas was 0.60 ± 0.10 % ID/g, the Biodistribution spleen stood at 11.1 ± 2.3 % ID/g and the Biodistribution stomach was found to be 0.49 ± 0.07 % ID/g. This compound also yielded a Biodistribution tumor in data set [1] of 10.4 ± 0.67 % ID/g.
As for `CC(C)(C)[Si](F)(c1ccc(C(=O)NC[C@@H](NC(=O)CC[C@@H](C(=O)O)N2CCN(CC(=O)O)CCN(CC(=O)O)CCN(CC(=O)O)CC2)C(=O)N[C@H](CCCCNC(=O)CCC(=O)NCCC[C@@H](NC(=O)CC[C@H](NC(=O)N[C@@H](CCC(=O)O)C(=O)O)C(=O)O)C(=O)O)C(=O)O)cc1)C(C)(C)C` [rhPSMA7.3, [^19F][^natGa]D-Dap-S-DOTAGA-rhPSMA7, metal not drawn], the “[F-18]rhPSMA7.3 share of radioactivity in urine” value amounted to 85.8% in data set [2] (after addition of 5 nmol [F-19]rhPSMA7-3, room temperature) and 79.4% in data set [2] (radioactive urine before addition of cold [F-19]rhPSMA7.3).
